The experiment relates to HEK293 cells. In words: Endogenous ceramide, HexCer and SM levels in cells treated 24 h, targeted LC-MS/MS. To be noted: HEK293 cells, 24 h. The class given is cell-based. How it is done: Lipids were then extracted using MTBE/methanol/water as described above.
HEK293 cell culture experiment: Levels of each lipid in P053-treated HEK293 cells were normalised to the mean of the vehicle control group, and each concentration was compared to the control using ANOVA with Dunnett’s post-test. P values were adjusted for multiple comparisons in GraphPad PRISM.
Supplementary Figure 1. Ceramide, SM, and HexCer levels in HEK293 cells treated with
P053. Absolute lipid levels were determined by targeted LC-MS/MS, relative to external
standard curves. Results are mean ± SEM (n = 4) from one of two identical experiments.
Statistically significant results, based on two independent experiments, are as indicated in
Figure 2b-d. Raw data for these figures is provided in Supplementary Data File 1.

The source of these data is article PMC6104039 (Nature Communications, 2018).

Several values for one entry are separate records, joined by “and”; a condition that tells them apart may be missing. Identical values can stand only once.

In the case of `C[C@@](N)(CO)CCc1ccc(OCc2ccc(Cl)c(Cl)c2)cc1` [P053, (S)-2-amino-4-(4-(3,4-dichlorobenzyloxy)phenyl)-2-methylbutan-1-ol], for the setting “P053 10 nM”, the “24:1 SM level” value is 96.7947 percentage of the vehicle control group and 98.2864 percentage of the vehicle control group and 81.9082 percentage of the vehicle control group and 117.227 percentage of the vehicle control group and 113.319 percentage of the vehicle control group and 103.033 percentage of the vehicle control group and 103.816 percentage of the vehicle control group and 97.9548 percentage of the vehicle control group. Also, under “P053 30 nM”, the “14:0 SM level” value is 116.988 percentage of the vehicle control group and 111.4 percentage of the vehicle control group and 100.814 percentage of the vehicle control group and 94.1513 percentage of the vehicle control group and 120.651 percentage of the vehicle control group and 105.592 percentage of the vehicle control group and 111.904 percentage of the vehicle control group and 100.551 percentage of the vehicle control group; the “16:0 Cer level” value is 114.03 percentage of the vehicle control group and 105.56 percentage of the vehicle control group and 86.7073 percentage of the vehicle control group and 95.6011 percentage of the vehicle control group and 106.761 percentage of the vehicle control group and 98.8726 percentage of the vehicle control group and 108.159 percentage of the vehicle control group and 97.2516 percentage of the vehicle control group; the “16:0 HexCer level” value is 79.9911 percentage of the vehicle control group and 81.3101 percentage of the vehicle control group and 74.3038 percentage of the vehicle control group and 88.8289 percentage of the vehicle control group and 99.9863 percentage of the vehicle control group and 95.9283 percentage of the vehicle control group and 102.652 percentage of the vehicle control group and 109.256 percentage of the vehicle control group; the “16:0 SM level” value is 101.805 percentage of the vehicle control group and 101.307 percentage of the vehicle control group and 94.9476 percentage of the vehicle control group and 93.9555 percentage of the vehicle control group and 110.566 percentage of the vehicle control group and 97.2802 percentage of the vehicle control group and 102.981 percentage of the vehicle control group and 97.8958 percentage of the vehicle control group. For the same compound, under “P053 30 nM”, the “16:1 SM level” value was 104.561 percentage of the vehicle control group and 101.096 percentage of the vehicle control group and 98.3763 percentage of the vehicle control group and 109.464 percentage of the vehicle control group and 104.292 percentage of the vehicle control group and 104.01 percentage of the vehicle control group and 101.515 percentage of the vehicle control group; the “18:0 Cer level” value was 72.2013 percentage of the vehicle control group and 69.2543 percentage of the vehicle control group and 56.626 percentage of the vehicle control group and 64.3691 percentage of the vehicle control group and 82.5432 percentage of the vehicle control group and 84.0607 percentage of the vehicle control group and 83.9582 percentage of the vehicle control group and 71.3957 percentage of the vehicle control group; the “18:0 HexCer level” value is 55.7883 percentage of the vehicle control group and 64.0009 percentage of the vehicle control group and 45.6733 percentage of the vehicle control group and 59.2017 percentage of the vehicle control group and 57.5393 percentage of the vehicle control group and 74.8051 percentage of the vehicle control group and 77.6074 percentage of the vehicle control group; the “18:0 SM level” value is 73.8483 percentage of the vehicle control group and 78.6872 percentage of the vehicle control group and 83.1913 percentage of the vehicle control group and 75.9206 percentage of the vehicle control group and 97.6949 percentage of the vehicle control group and 87.2321 percentage of the vehicle control group and 89.1916 percentage of the vehicle control group and 74.9956 percentage of the vehicle control group. Moreover, where the note is “P053 30 nM”, the “18:1 SM level” value is 87.9585 percentage of the vehicle control group and 73.1683 percentage of the vehicle control group and 79.2449 percentage of the vehicle control group and 71.4358 percentage of the vehicle control group and 96.5941 percentage of the vehicle control group and 87.3865 percentage of the vehicle control group and 81.7473 percentage of the vehicle control group and 78.1368 percentage of the vehicle control group; the “20:0 Cer level” value was 62.7306 percentage of the vehicle control group and 109.856 percentage of the vehicle control group and 118.09 percentage of the vehicle control group and 96.2985 percentage of the vehicle control group and 100.9 percentage of the vehicle control group and 105.057 percentage of the vehicle control group and 91.6087 percentage of the vehicle control group; the “22:0 Cer level” value is 116.044 percentage of the vehicle control group and 99.7524 percentage of the vehicle control group and 91.9349 percentage of the vehicle control group and 88.0267 percentage of the vehicle control group and 116.852 percentage of the vehicle control group and 103.772 percentage of the vehicle control group and 120.038 percentage of the vehicle control group and 118.899 percentage of the vehicle control group; the “22:0 HexCer level” value was 90.0465 percentage of the vehicle control group and 79.6776 percentage of the vehicle control group and 76.0982 percentage of the vehicle control group and 95.044 percentage of the vehicle control group and 107.866 percentage of the vehicle control group and 100.167 percentage of the vehicle control group and 123.322 percentage of the vehicle control group and 116.268 percentage of the vehicle control group. Where the note is “P053 30 nM”, the “22:0 SM level” value was 128.14 percentage of the vehicle control group and 90.1111 percentage of the vehicle control group and 110.345 percentage of the vehicle control group and 114.556 percentage of the vehicle control group and 123.558 percentage of the vehicle control group and 116.784 percentage of the vehicle control group and 129.764 percentage of the vehicle control group and 100.326 percentage of the vehicle control group; the “22:1 SM level” value was 99.3902 percentage of the vehicle control group and 113.946 percentage of the vehicle control group and 108.27 percentage of the vehicle control group and 113.134 percentage of the vehicle control group and 107.671 percentage of the vehicle control group and 100.443 percentage of the vehicle control group and 99.5068 percentage of the vehicle control group and 95.4079 percentage of the vehicle control group; the “24:0 HexCer level” value was 96.4804 percentage of the vehicle control group and 86.7028 percentage of the vehicle control group and 84.7209 percentage of the vehicle control group and 91.5325 percentage of the vehicle control group and 104.127 percentage of the vehicle control group and 98.7325 percentage of the vehicle control group and 129.497 percentage of the vehicle control group and 115.717 percentage of the vehicle control group; the “24:0 SM level” value was 114.636 percentage of the vehicle control group and 105.214 percentage of the vehicle control group and 97.3725 percentage of the vehicle control group and 90.2877 percentage of the vehicle control group and 117.867 percentage of the vehicle control group and 114.443 percentage of the vehicle control group and 132.815 percentage of the vehicle control group and 128.722 percentage of the vehicle control group. For the same compound, where the note is “P053 30 nM”, the “24:1 Cer level” value is 117.491 percentage of the vehicle control group and 102.844 percentage of the vehicle control group and 87.9247 percentage of the vehicle control group and 98.6487 percentage of the vehicle control group and 120.911 percentage of the vehicle control group and 109.977 percentage of the vehicle control group and 130.805 percentage of the vehicle control group and 124.062 percentage of the vehicle control group; the “24:1 HexCer level” value is 93.843 percentage of the vehicle control group and 87.9781 percentage of the vehicle control group and 89.6469 percentage of the vehicle control group and 99.7739 percentage of the vehicle control group and 102.587 percentage of the vehicle control group and 104.249 percentage of the vehicle control group and 119.244 percentage of the vehicle control group and 107.968 percentage of the vehicle control group; the “24:1 SM level” value was 102.826 percentage of the vehicle control group and 100.942 percentage of the vehicle control group and 98.397 percentage of the vehicle control group and 94.2567 percentage of the vehicle control group and 116.83 percentage of the vehicle control group and 103.091 percentage of the vehicle control group and 120.071 percentage of the vehicle control group and 112.514 percentage of the vehicle control group. In addition, the “14:0 SM level” value (P053 100 nM) was 112.517 percentage of the vehicle control group and 90.2734 percentage of the vehicle control group and 104.152 percentage of the vehicle control group and 104.709 percentage of the vehicle control group and 117.225 percentage of the vehicle control group and 115.891 percentage of the vehicle control group and 108.424 percentage of the vehicle control group and 118.856 percentage of the vehicle control group.
